Publication PMC8388771, “Cationic Peptidomimetic Amphiphiles Having a N-Aryl- or N-Naphthyl-1,2,3-Triazole Core Structure Targeting Clostridioides (Clostridium) difficile: Synthesis, Antibacterial Evaluation, and an In Vivo C. difficile Infection Model” (Antibiotics, 2021)
Converted amounts (≈) assume the structure as drawn.

Key:
[1] = system: C. difficile ATCC 700057; test: Primary MIC assay, C. difficile ATCC 700057; type: cell-based, Clostridioides difficile; conditions: Clostridioides difficile, ATCC700057; Table 1; read-out: MIC C. difficile ATCC 700057
Description: (§1) The N-arytriazole and N-naphthyltriazole peptidomimetics were subjected to antimicrobial screening. […] Vancomycin, colistin, fluconazole, and tamoxifen were used as positive controls (see Table 1 for details).
(§2) Primary screening (Gram-positive bacteria). Primary MIC assays were performed as described by the Clinical and Laboratory Standards Institute for aerobic and anaerobic bacteria. MIC values for vancomycin were within acceptable QC ranges.

[2] = system: E. faecalis ATCC 29212; test: Primary MIC assay, E. faecalis ATCC 29212; type: cell-based, Enterococcus faecalis; conditions: Enterococcus faecalis, ATCC29212; Table 1; read-out: MIC E. faecalis ATCC 29212
Description: as §1, §2

[3] = system: S. aureus ATCC 29213; test: Primary MIC assay, S. aureus ATCC 29213; type: cell-based; conditions: Staphylococcus aureus, ATCC29213; Table 1; read-out: MIC S. aureus ATCC 29213
Description: as §1, §2

[4] = system: C. difficile 132 (RT027); test: Primary MIC assay, C. difficile 132 (RT027); type: cell-based, Clostridioides difficile; conditions: Clostridioides difficile; Table 1; read-out: MIC C. difficile 132 (RT027)
Description: as §1, §2

[5] = system: C. albicans ATCC 90028; test: CO-ADD MIC assay, C. albicans ATCC 90028; type: cell-based; conditions: Candida albicans, ATCC90028, Table S1
Excerpt: as §1
(§3) Secondary screening (MRSA and Gram-negative bacteria) and cytotoxicity assay–performed by the Community for Open Antimicrobial Drug Discovery (CO-ADD). Samples were provided to CO-ADD [29] for antimicrobial screening by whole cell growth inhibition assays.

[6] = system: P. aeruginosa ATCC 27853; test: CO-ADD MIC assay, P. aeruginosa ATCC 27853; type: cell-based; conditions: Pseudomonas aeruginosa, ATCC27853, Table S1
Excerpt: as §1, §3
(§4) Bacterial Inhibition–MIC Assay. These were performed as described previously.

[7] = system: S. aureus ATCC 43300; test: CO-ADD MIC assay, S. aureus ATCC 43300 (MRSA); type: cell-based; conditions: Staphylococcus aureus, Table S1; MRSA; CO-ADD; read-out: MIC S. aureus ATCC 43300
Excerpt: as §1, §3, §4

[8] = system: human erythrocytes; test: Hemolysis assay, HC50 determination; type: cell-based
Description: Hemolysis assay (human erythrocytes)–HC50 determination. These were performed as described previously.

[9] = system: E. coli ATCC 25922; test: Primary MIC assay, E. coli ATCC 25922; type: cell-based; conditions: Escherichia coli, ATCC25922; Table 1; read-out: MIC E. coli ATCC 25922
[10] = system: S. aureus NCTC 10442; test: Primary MIC assay, S. aureus NCTC 10442 (MRSA); type: cell-based; conditions: Staphylococcus aureus; Table 1; MRSA; read-out: MIC S. aureus NCTC 10442
Description: as §1, §2

[11] = system: Cryptococcus neoformans var. grubii ATCC 208821; test: CO-ADD MIC assay, C. neoformans var. grubii ATCC 208821; type: cell-based; conditions: for MIC: Cryptococcus neoformans, ATCC208821, Table S1; for MIC C. neoformans var. grubii ATCC 208821: Table S1
Excerpt: as §1, §3

[12] = Cytotoxicity (CC50) assay by CO-ADD; type: cell-based, human; conditions: human, HEK293 cells (ATCC CRL-1573); Table 1; cytotoxicity on HEK293 cells, tested at ≤32 µg/mL
Excerpt: as §1, §3
Cytotoxicity Assay. These were performed as described previously.

[13] = system: K. pneumoniae ATCC 700603; test: CO-ADD MIC assay, K. pneumoniae ATCC 700603; type: cell-based; conditions: Klebsiella pneumoniae, ATCC700603, Table S1, multi-drug resistant
Excerpt: as §1, §3, §4

[14] = system: A. baumannii ATCC 19606; test: CO-ADD MIC assay, A. baumannii ATCC 19606; type: cell-based; conditions: Acinetobacter baumannii, ATCC19606, Table S1
Excerpt: as §1, §3, §4

[15] = system: E. coli ATCC 25922; test: CO-ADD MIC assay, E. coli ATCC 25922; type: cell-based; conditions: Escherichia coli, ATCC25922, Table S1
Excerpt: as §1, §3, §4

[16] = system: S. pneumoniae ATCC 49619; test: Primary MIC assay, S. pneumoniae ATCC 49619; type: cell-based, Streptococcus pneumoniae; conditions: Streptococcus pneumoniae, ATCC49619; Table 1; read-out: MIC S. pneumoniae ATCC 49619
Description: as §1, §2

[17] = Table 1, lysis of human erythrocytes
[18] = Table S1, footnote says lysis of sheep erythrocytes

MIC [1] [µg/mL]	MIC [2] [µg/mL]	MIC [3] [µg/mL]	MIC [4] [µg/mL]	MIC [5] [µg/mL]	MIC [6] [µg/mL]	MIC [7] [µg/mL]	MIC [9] [µg/mL]	MIC [10] [µg/mL]	MIC [11] [µg/mL]	MIC [13] [µg/mL]	MIC [14] [µg/mL]	MIC [15] [µg/mL]	MIC [16] [µg/mL]	MIC C. neoformans var. grubii ATCC 208821 [11] [µg/mL]	Compound	HC50 [8, 17] [µg/mL]	HC50 [8, 18] [µg/mL]	CC50 [12] [µg/mL]
128 (≈ 227 µM)	32 (≈ 56.7 µM)	32 (≈ 56.7 µM)	128 (≈ 227 µM)	> 32	> 32	32 (≈ 56.7 µM)	> 128	32 (≈ 56.7 µM)	32 (≈ 56.7 µM)	> 32	> 32	> 32	32 (≈ 56.7 µM)		CC(C)CCc1cnnn1-c1ccccc1OCC(=O)N[C@H](CCCNC(=N)N)Cn1cc(C2CCCCC2)nn1 [Compound 14]	>32	> 32	> 32
128 (≈ 183 µM)	64 (≈ 91.3 µM)	32 (≈ 45.7 µM)	128 (≈ 183 µM)	16 (≈ 22.8 µM)	> 32	16 (≈ 22.8 µM)	128 (≈ 183 µM)	32 (≈ 45.7 µM)	32 (≈ 45.7 µM)	> 32	> 32	> 32	16 (≈ 22.8 µM)		CC(C)CCc1cn(-c2ccccc2OCC(=O)N[C@H](CCCCN)C(=O)N[C@H](CCCNC(=N)N)Cn2cc(Cc3ccccc3)nn2)nn1 [Compound 36]	>32	> 32	> 32
64	32	32	32	16	> 32	32	128	64	16	> 32	> 32	> 32	16		CC(C)CCc1cnnn1-c1ccccc1OCC(=O)N[C@H](CCCCN)C(=O)N[C@H](CCCNC(=N)N)Cn1cc(Cc2ccccc2)nn1.Cl.Cl [Compound 39]	>32	> 32	> 32
128 (≈ 181 µM)	> 128	128 (≈ 181 µM)	> 128	> 32	> 32	32 (≈ 45.3 µM)	> 128	128 (≈ 181 µM)	16 (≈ 22.6 µM)	> 32	> 32	> 32	128 (≈ 181 µM)		CC(C)CCc1cnnn1-c1ccccc1OCC(=O)N[C@H](CCCCN)C(=O)N[C@H](CCCNC(=N)N)Cn1cc(CC2CCCCC2)nn1 [Compound 38]	32	32	32 (≈ 45.3 µM)
32	8	4	64	16	> 32	4	16	4	4 to 8	> 32	32	32	8	8	CC(C)CCc1cnnn1-c1c(OCC(=O)N[C@H](CCCNC(=N)N)Cn2cc(CC3CCCCC3)nn2)ccc2ccccc12.Cl [Compound 25]	10.6	10.6	> 32
32	32	32	64	> 32	> 32	32	128	32	32	> 32	> 32	> 32	16		CC(C)CCc1cn(-c2ccccc2OCC(=O)N[C@H](CCCNC(=N)N)Cn2cc(Cc3ccccc3)nn2)nn1.Cl [Compound 13]	>32	> 32	> 32
32	32	32	32	> 32	> 32	32	> 128	32	32	> 32	> 32	> 32	32		CC(C)CCc1cnnn1-c1ccccc1OCC(=O)N[C@H](CCCNC(=N)N)Cn1cc(Cc2ccccc2)nn1.Cl [Compound 16]	>32	> 32	> 32
32	32	32	64	> 32	> 32	32	128	32	32	> 32	> 32	> 32	16		CC(C)CCc1cn(-c2ccccc2OCC(=O)N[C@H](CCCNC(=N)N)Cn2cc(C3CCCC3)nn2)nn1.Cl [Compound 11]	>32	> 32	> 32
32	4	4	32	32	> 32	8	64	4	16	> 32	> 32	32	4		CC(C)CCc1cn(-c2c(OCC(=O)N[C@H](CCCNC(=N)N)Cn3cc(Cc4ccccc4)nn3)ccc3ccccc23)nn1.Cl [Compound 23]	>32	> 32	> 32
> 32	> 32	32 (≈ 43.4 µM)	> 32	> 32	> 32	32 (≈ 43.4 µM)	> 32	> 32	> 32	> 32	> 32	> 32	> 32		CC(C)CCOc1ccccc1-n1nncc1COCC(=O)N[C@H](CCCCN)C(=O)N[C@H](CCCNC(=N)N)Cn1cc(CC2CCCCC2)nn1 [Compound 49]	17.1	17.1	> 32
32 (≈ 52 µM)	8 (≈ 13 µM)	8 (≈ 13 µM)	32 (≈ 52 µM)	32 (≈ 52 µM)	32 (≈ 52 µM)	8 (≈ 13 µM)	32 (≈ 52 µM)	8 (≈ 13 µM)	> 32	> 32	32 (≈ 52 µM)	32 (≈ 52 µM)	8 (≈ 13 µM)		CC(C)CCc1cnnn1-c1c(OCC(=O)N[C@H](CCCNC(=N)N)Cn2cc(C3CCCCC3)nn2)ccc2ccccc12 [Compound 24]	>32	> 32	21.9 (≈ 35.6 µM)
> 32	> 32	32 (≈ 43.8 µM)	> 32	> 32	> 32	32 (≈ 43.8 µM)	> 32	> 32	> 32	> 32	> 32	> 32	> 32		CC(C)CCOc1ccccc1-n1nncc1COCC(=O)N[C@H](CCCCN)C(=O)N[C@H](CCCNC(=N)N)Cn1cc(Cc2ccccc2)nn1 [Compound 50]	19.8	19.8	> 32
32 (≈ 42.3 µM)	16 (≈ 21.1 µM)	8 (≈ 10.6 µM)	32 (≈ 42.3 µM)	32 (≈ 42.3 µM)	32 (≈ 42.3 µM)	8 (≈ 10.6 µM)	64 (≈ 84.5 µM)	4 (≈ 5.28 µM)	4 to 8 (≈ 5.28 to 10.6 µM)	> 32	32 (≈ 42.3 µM)	32 (≈ 42.3 µM)	4 (≈ 5.28 µM)	8 (≈ 10.6 µM)	CC(C)CCc1cnnn1-c1c(OCC(=O)N[C@H](CCCCN)C(=O)N[C@H](CCCNC(=N)N)Cn2cc(CC3CCCCC3)nn2)ccc2ccccc12 [Compound 44]	>32	> 32	> 32
